Data from patent US20080004561A1, “Method for Treating Oncological, Virulent and Somatic Diseases, Method for Controlling Treatment Efficiency, Pharmaceutical Agents and Composition for Carrying Out Said Treatment” (priority 2005, published 2008).

Legend:
LLC tumor = LLC tumor growth under Doxorubicin, plasma DNA of chemotherapy-treated mice and DNase I (Example 14); format: in vivo, C57B1 mice
Source text: Blood plasma DNA of tumor-bearing mice was received according to technique described above. Highly metastatic and low metastatic stains of mice' Luice lung carcinoma and Erlich carcinoma were used. Cells were cultivated in RPMI-1640 media with adding of 10% embryonic calf serum, 1% penicillin—streptomycin in 5% carbon dioxide atmosphere. For tumor induction in mice, cells were cultivated until the monolayer, than were detached with trypsin-EDTA solution. Cells were washed trice by centrifuging in phosphate buffer and were resuspensed until their concentration have become 0.5×10^7/ml. Viability was defined by inclusion of methylene blue in hemocytometer. Suspensions that contained 95% of viable cells were used for administration to animals.
Mice of C57B1 line and white not thoroughbred mice from “Rappolovo” animal house were used. Weight of animals was 24-26 grams. Animals were contained in cages, for 6-7 mice per one cage on a standard diet without water restriction. LLC cells in dose of 5×10^5 in 100 mkl of phosphate buffer were injected in soft tissues of thigh. Erlich tumor was subcutaneously replanted on the right side by injection of 0.2 ml 10% cells' suspension in isotonic sodium chloride solution.

P-glycoprotein = P-glycoprotein expression in Erlich carcinoma, immunohistochemical staining (Example 13); format: in vivo, mice; settings: 5 day therapy from 3rd day: Doxorubicin 2 mg/kg intravenously daily, DNase I 0.5 mg/kg four times a day; tissue on 8th day
Protocol: Mice were subjected to course of 5 day therapy with Doxorubicin (2 mg/kg intravenously daily) or Doxorubicin+DNase I (0.5 mg/kg four times a day during 5 days)
Tissue preparations were executed on the 8th day of tumor's transplantation.

Erlich carcinoma = test: Combined use of DNase and Doxorubicin, Erlich tumor growth (Example 3); format: in vivo, mice; settings: Doxorubicin 2 mg/kg intravenously once a day and/or DNase 0.5 mg/kg intraperitoneally four times a day, day 3 to 7; 7th day after transplantation
Protocol: Bovine pancreatic DNase I (Fermentas) and human recombinant DNase […]) were used. DNase I solution for injections were prepared by dissolving of DNase matrix solution in sterile phosphate buffer directly before administration. […] Blood plasma DNA of tumor-bearing mice was received according to technique described above. Highly metastatic and low metastatic stains of mice' Luice lung carcinoma and Erlich carcinoma were used. […] For tumor induction in mice, cells were cultivated until the monolayer, than were detached with trypsin-EDTA solution. Cells were washed trice by centrifuging in phosphate buffer and were resuspensed until their concentration have become 0.5×10^7/ml. Viability was defined by inclusion of methylene blue in hemocytometer. […] Mice of C57B1 line and white not thoroughbred mice from “Rappolovo” animal house were used. Weight of animals was 24-26 grams. Animals were contained in cages, for 6-7 mice per one cage on a standard diet without water restriction. LLC cells in dose of 5×10^5 in 100 mkl of phosphate buffer were injected in soft tissues of thigh. […] Group 1-10 mice transplanted with Erlich carcinoma (control). Group 2-10 mice replanted with Erlich carcinoma. […] Group 3-10 mice replanted with Erlich carcinoma. […] Group 4-10 mice replanted with Erlich carcinoma. […] Results of experiments were estimated according to tumor's growth inhibition (TGI) that were expressed in percents to control data received at last day of DNase injection with standard formula using.

[1] = Toxic effect of human DNase I injection on animals; format: in vivo; settings: single and multiple injection of up to 2.5 mg/kg
[2] = Influence of DNase I therapy on old rats' life time (Example 19); format: in vivo; settings: 24 month old rats, 500 mg/kg intravenously 2 times a week during 2 months
Protocol: White not thoroughbred 24 month old rats were used in experiment. In the study group (10 animals) rats starting from the age of 24 months were subjected to intravenous administration of polysialated human DNase I at […] (equivalent dose of non-modified enzyme) 2 times a week during 2 months. Control group of animals got the administration of placebo. Average life time of rats from control group was 27.8 months. Average life time of rats from experimental group was 30.1 months.

For O=P1(N(CCCl)CCCl)NCCCO1 (centres unmarked) [Cyclophosphamide], the “tumor inhibition at day 8” value (LLC tumor; mouse, in vivo) was 30%.

For COc1cccc2c1C(=O)c1c(O)c3c(c(O)c1C2=O)C[C@@](O)(C(=O)CO)C[C@@H]3O[C@H]1C[C@H](N)[C@H](O)[C@H](C)O1 [Doxorubicin], the “Tumor's size” value (LLC tumor; 8th day after transplantation, Doxorubicin 2 mg/kg i.v. daily day 3-8, DNA 0.05 mkg i.v. day 1 and 3 of treatment, DNase I 0.5 mg/kg i.p. 4 times a day, first and second days) was 67 +/− 7, the “tumor inhibition at day 8” value (LLC tumor; Doxorubicin 2 mg/kg daily for 5 days from day 3, Cyclophosphamide 15 mg/kg intraperitoneally once on 3rd day) was 50% and the “P-glycoprotein expression in tumor tissue” value (P-glycoprotein) was “Multifocal expression”. For the same molecule, the “T% (tumor's growth inhibition)” value (Erlich carcinoma) was 42% and the “Tumor's volume” value (Erlich carcinoma) was 57 +/− 10.

B1: human DNase I: human recombinant DNase I (Dornase; Gentech) (protein, UniProt P24855 23-282, looked up)
Deoxyribonuclease-1: LKIAAFNIQTFGETKMSNATLVSYIVQILSRYDIALVQEVRDSHLTAVGKLLDNLNQDAPDTYHYVVSEPLGRNSYKERYLFVYRPDQVSAVDSYYYDDGCEPCGNDTFNREPAIVRFFSRFTEVREFAIVPLHAAPGDAVAEIDALYDVYLDVQEKWGLEDVMLMGDFNAGCSYVRPSQWSSIRLWTSPTFQWLIPDSADTTATPTHCAYDRIVVAGMLLRGAVVPDSALPFNFQAAYGLSDQLAQAISDHYPVEVMLK
With B1 the “Toxic effect on animals” value [1] was “no toxic effect”.

B2: polysialated human DNase I: polysialated human DNase I, dose as equivalent of non-modified enzyme (protein, UniProt P24855 23-282, looked up)
Deoxyribonuclease-1: LKIAAFNIQTFGETKMSNATLVSYIVQILSRYDIALVQEVRDSHLTAVGKLLDNLNQDAPDTYHYVVSEPLGRNSYKERYLFVYRPDQVSAVDSYYYDDGCEPCGNDTFNREPAIVRFFSRFTEVREFAIVPLHAAPGDAVAEIDALYDVYLDVQEKWGLEDVMLMGDFNAGCSYVRPSQWSSIRLWTSPTFQWLIPDSADTTATPTHCAYDRIVVAGMLLRGAVVPDSALPFNFQAAYGLSDQLAQAISDHYPVEVMLK
modifications: polysialylated
notes: polysialated human DNase I, dose as equivalent of non-modified enzyme
For B2, the Average life time [2] was 30.1 months.
